According to US10450274B2, “Quinoline compounds, preparation methods thereof, and uses thereof as urate transporter inhibitor drug” (HINOVA PHARMACEUTICALS INC., priority 2015, dated 2019):
“And” between values parts separate entries of the source, which are not always exact repeats. Identical values can stand only once.

What follows are molecules tested against T1, hURAT1 (Homo sapiens, UniProt Q96S37) (assay: Inhibitory activity against URAT1: 14C-labelled uric acid uptake in HEK-293t cells stably expressing hURAT1). Conditions: HEK-293t/hURAT1 cells, 14C uric acid uptake, 5 minutes at room temperature; Ref Cpd 2, 83, Ref Cpd 3 and 129 are averages of head-to-head tests; read-out: IC50 (nM) of hURAT1 inhibitory activity.
T1 sequence (Q96S37 1-553): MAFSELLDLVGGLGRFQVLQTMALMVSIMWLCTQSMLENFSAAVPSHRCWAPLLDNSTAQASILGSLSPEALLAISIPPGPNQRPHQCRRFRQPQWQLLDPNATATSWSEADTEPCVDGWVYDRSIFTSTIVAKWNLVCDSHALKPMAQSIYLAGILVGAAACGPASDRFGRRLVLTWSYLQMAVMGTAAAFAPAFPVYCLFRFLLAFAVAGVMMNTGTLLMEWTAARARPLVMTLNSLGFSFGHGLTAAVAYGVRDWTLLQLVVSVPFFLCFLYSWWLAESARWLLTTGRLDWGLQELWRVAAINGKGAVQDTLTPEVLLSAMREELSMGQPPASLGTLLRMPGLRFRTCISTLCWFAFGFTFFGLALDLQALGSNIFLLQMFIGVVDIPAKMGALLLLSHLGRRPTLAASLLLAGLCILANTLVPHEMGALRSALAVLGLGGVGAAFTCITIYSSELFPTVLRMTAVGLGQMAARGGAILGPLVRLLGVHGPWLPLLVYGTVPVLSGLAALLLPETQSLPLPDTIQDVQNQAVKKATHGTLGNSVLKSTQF
Format: cell-based
From the text: • Test example: Determination of the inhibitory activity of compounds according to the present invention against URAT1 Experimental Materials • FBS (Invitrogen, Cat. No. 10099141) • Trypsin (Invitrogen, Cat. No. 25200056) • DPBS (Invitrogen, Cat. No. 14190250) • DMEM (Invitrogen, Cat. No. 10564) • Penicillin-Streptomycin (Invitrogen, Cat. No. 15070-063) • TransIT-293 Transfection Reagent (MIRUS BIO, Cat. No. MIR2706) • Opti-MEM® I Reduced Serum Medium (Invitrogen, Cat. No. 31985-070) • URAT1 plasmid (Genecopoeia, Cat. No. EX-T4563-M03) • Uric acid [8-14C] (ARC, Cat. No. ARC0513-250UCI) • Ultima Gold™ XR (PerkinElmer, Cat. No. 6013111) • Benzbromarone (J&K Scientific, Cat. No. 3562-84-3) • D-Gluconic acid sodium salt (Aladdin, Cat. No. 527-07-1) • Potassium D-gluconate (Aladdin, Cat. No. 299-27-4) • Calcium gluconate (Aladdin, Cat. No. 299-28-5) • DMSO (Sigma, Cat. No. D2650) • Tube, 15 ml (Greiner, Cat. No. 07030115) • Tube, 50 ml (BD Falcon, Cat. No. 352098) • Poly-D-lysine 96-well microplates (BD, Cat. No. 356461) • Isoplate-96 Microplate (PERKIN ELMER, Cat. No. 6005040) Experimental Method:
Cell Culture: • 1. The HEK-293t cells that expressed the stable expression of hURAT1 were cultured in DMEM medium containing 10% FBS and 1% P/S, and incubated overnight in the incubator at 37° C. under 5% carbon dioxide. • 2. the culture medium was removed, and the cells were washed with PBS, and then the pancreatin was added to digest for 2 minutes. After the cell is separated from the dish, 10 ml of medium was added to terminate digestion. • 3. The cells were placed into a centrifugal apparatus and centrifugated for 2 minutes at the speed of 1000 rpm, followed by the addition of fresh 10 mL medium to resuspend the cells, and calculate the number of cells. The number of cells was adjusted to 4×10^5 cells/mL. • 4. the above counted cells were inoculated into the 96-well plate at 100 μL/well. • 5. The 96-well plate with inoculated cells was placed in a 37° C. cell incubator and cultivated overnight.
The uric acid absorption experiment labeled with isotope C14: • 1. 5 mL of Cl-free HBSS buffer was added to a 15 mL centrifuge tube, followed by the addition of the uric acid labeled with C14, and the concentration of uric acid was 2 uCi/ml. • 2. The medium in the 96-well plate that was previously cultivated overnight was removed, and the plate was washed three times with […] preheated Cl-free HBSS buffer. • 3. The buffer in the well-washed 96-well plate was removed. • 4. […] Cl-free HBSS buffer containing C-14 labeled uric acid was added into each well in the cleaned 96-well plate, and then DMSO solution of the compound that needs to be tested was added. • 5. After the 96-well plate stood for 5 minutes at room temperature, all the liquid in it was removed. • 6. […] precooled Cl-free HBSS buffer was added to wash the plate three times. • 7. After the remained liquid in the plates was completely removed, 50 μL cell lysis was added to each well, and the plate was agitated on the mixer at a speed of 600 revolutions/min for 10 minutes. • 8. After 50 μL Ultima Gold™ XR scitillation cocktail fluid was added, the plate was continued to agitate for 10 minutes. The well-agitated plate was sealed, and the data was read on MicroBeta Trilux. • 9. The test compound was dissolved in DMSO, and DMSO at the same concentration was added to the HEK293/hURAT1 cell well without test compounds. […] The radiation value obtained from the well containing DMSO is considered to be 100% of the cell uptake. The IC50 values of compounds can be calculated by the inhibition rate at different concentrations.
Among them, reference compound 1 was synthesized according to the method described in patent WO 2011/159839 A2. Reference compound 2 and reference compound 3 were synthesized according to the method described in patent WO 2014/183555 A1, and they were head-to-head tested with compounds 83 and 129 respectively under the same conditions.

Point of comparison: `COc1cccc(-c2ccc3nccc(SC(C)(C)C(=O)O)c3c2)c1` [Compound 20, 2-(6-(3-methoxyphenyl)-quinolin-4-ylthio)-2-methylpropanoic acid], IC50 21 nM. Against it:
- 2-(6-(2-fluoropyridin-4-yl)-quinolin-4-ylthio)-2-ethylbutanoic acid [Compound 118] — 1.7-fold higher, 36 nM
- 2-(6-(3-fluoropyridin-4-yl)-quinolin-4-ylthio)-2-ethylbutanoic acid [Compound 123] — 67-fold higher, 1400 nM
- CC(C)(Sc1ccnc2ccc(C3CC3)cc12)C(=O)O [Compound 1, 2-(6-cyclopropylquinolin-4-ylthio)-2-methylpropanoic acid] — 23-fold higher, 486 nM
- CC(C)(Sc1ccnc2ccc(-c3cccnc3)cc12)C(=O)O [Compound 3, 2-(6-(pyridin-3-yl)quinolin-4-ylthio)-2-methylpropanoic acid] — 24-fold higher, 514 nM
- CC(C)(Sc1ccnc2ccc(-c3ccncc3)cc12)C(=O)O [Compound 4, 2-(6-(pyridin-4-yl)quinolin-4-ylthio)-2-methylpropanoic acid] — 6-fold higher, 127 nM
- COc1ccccc1-c1ccc2nccc(SC(C)(C)C(=O)O)c2c1 [Compound 19, 2-(6-(2-methoxyphenyl)-quinolin-4-ylthio)-2-methylpropanoic acid] — 22-fold higher, 472 nM
- COc1ccc(-c2ccc3nccc(SC(C)(C)C(=O)O)c3c2)cc1 [Compound 21, 2-(6-(4-methoxyphenyl)quinolin-4-ylthio)-2-methylpropanoic acid] — 90-fold higher, 1900 nM
- CC(C)(Sc1ccnc2ccc(Br)cc12)C(=O)O [Compound 22, 2-((6-bromoquinolin-4-yl)thio)-2-methylpropanoic Acid] — 7.6-fold higher, 159 nM
- CCC(Sc1ccnc2ccc(Br)cc12)C(=O)O (stereo not drawn) [Compound 24, 2-(6-bromoquinolin-4-ylthio)butanoic acid] — 290-fold higher, 6000 nM
- CC(C)(Sc1ccnc2ccc(-c3ccccc3F)cc12)C(=O)O [Compound 25, 2-(6-(2-fluorophenyl)-quinolin-4-ylthio)-2-methylpropanoic acid] — 39-fold higher, 812 nM
- CC(C)(Sc1ccnc2ccc(-c3cccc(F)c3)cc12)C(=O)O [Compound 28, 2-(6-(3-fluorophenyl)-quinolin-4-ylthio)-2-methylpropanoic acid] — 17-fold higher, 351 nM
- CC(C)(Sc1ccnc2ccc(-c3ccc(C(F)(F)F)cc3)cc12)C(=O)O [Compound 34, 2-(6-(4-(trifluoromethyl)phenyl)quinolin-4-ylthio)-2-methylpropanoic acid] — 220-fold higher, 4600 nM
- CC(C)(Sc1ccnc2ccc(-c3ccccc3C(F)(F)F)cc12)C(=O)O [Compound 37] — 15-fold higher, 325 nM
- CCC(CC)(Sc1ccnc2ccc(Br)cc12)C(=O)O [Compound 83, 2-(6-bromoquinolin-4-ylthio)-2-ethylbutanoic acid] — 3.4-fold higher, 70.6 nM
- CC(C)(Sc1ccnc2ccccc12)C(=O)O [Compound 93, 2-(quinolin-4-ylthio)-2-methylpropanoic acid] — 110-fold higher, 2400 nM
- CC(C)C(Sc1ccnc2ccc(Br)cc12)C(=O)O (stereo not drawn) [Compound 94, 2-(6-bromoquinolin-4-ylthio)-3-methylbutanoic acid] — 200-fold higher, 4300 nM
- COc1cc2nccc(SC(C)(C)C(=O)O)c2cc1OC [Compound 95, 2-(6,7-dimethoxyquinolin-4-ylthio)-2-methylpropanoic acid] — higher, > 30000 nM
- CC(C)(Sc1ccnc2ccc(C(F)(F)F)cc12)C(=O)O [Compound 96, 2-(6-trifluoromethylquinolin-4-ylthio)-2-methylpropanoic acid] — 37-fold higher, 772 nM
- CC(C)(Sc1ccnc2ccc(-c3ccc(C#N)cc3)cc12)C(=O)O [Compound 100, 2-(6-(4-cyano-phenyl)-quinolin-4-ylthio)-2-methylpropanoic acid] — 390-fold higher, 8140 nM
- CC(C)(Sc1ccnc2ccc(-c3cccc(OC(F)(F)F)c3)cc12)C(=O)O [Compound 101, 2-(6-(3-trifluoromethoxy-phenyl)-quinolin-4-ylthio)-2-methylpropanoic acid] — 34-fold higher, 710 nM
- CCOc1cccc(-c2ccc3nccc(SC(C)(C)C(=O)O)c3c2)c1 [Compound 102, 2-(6-(3-ethoxy-phenyl)-quinolin-4-ylthio)-2-methylpropanoic acid] — 1.5-fold higher, 32 nM
- CC(C)Oc1cccc(-c2ccc3nccc(SC(C)(C)C(=O)O)c3c2)c1 [Compound 103, 2-(6-(3-isopropoxy-phenyl)-quinolin-4-ylthio)-2-methylpropanoic acid] — 1.8-fold higher, 37 nM
- CC(C)(Sc1ccnc2ccc(-c3cccc(OC(F)F)c3)cc12)C(=O)O [Compound 104] — 11-fold higher, 238 nM
- CS(=O)(=O)NC(=O)C1(Sc2ccnc3ccc(Br)cc23)CCC1 [Compound 107, 1-(6-bromoquinolin-4-ylthio)-N-(methylsulfonyl)cyclobutyl-1-formamide] — 16-fold higher, 336 nM
- CCCC(CCC)(Sc1ccnc2ccc(-c3cccc(OCC)c3)cc12)C(=O)O [Compound 108, 2-(6-(3-ethoxy-phenyl)-quinolin-4-ylthio)-2-propylpentanoic acid] — 25-fold higher, 523 nM
- CCCC(CCC)(Sc1ccnc2ccc(-c3cccc(OC4CC4)c3)cc12)C(=O)O [Compound 109, 2-(6-(3-cyclopropyloxy-phenyl)-quinolin-4-ylthio)-2-propylpentanoic acid] — 34-fold higher, 722 nM
- CCCC(CCC)(Sc1ccnc2ccc(-c3cccc(OC4CCC4)c3)cc12)C(=O)O [Compound 110, 2-(6-(3-cyclobutyloxy-phenyl)-quinolin-4-ylthio)-2-propylpentanoic acid] — 140-fold higher, 2860 nM
- CCC(CC)(Sc1ccnc2ccc(-c3cccc(OC4CCC4)c3)cc12)C(=O)O [Compound 111, 2-(6-(3-cyclobutyloxy-phenyl)-quinolin-4-ylthio)-2-ethylbutanoic acid] — 13-fold higher, 267 nM
- CCC(CC)(Sc1ccnc2ccc(-c3cccc(OC4CC4)c3)cc12)C(=O)O [Compound 112, 2-(6-(3-cyclopropyloxy-phenyl)-quinolin-4-ylthio)-2-ethylbutanoic acid] — 7-fold higher, 147 nM

Same assay, conditions: average of the multiple head-to-head comparison tests, Table 2; read-out: Average (IC50 of multiple determinations)

In the case of `CCC(CC)(Sc1ccnc2ccc(Br)cc12)C(=O)O` [Compound 83, 2-(6-bromoquinolin-4-ylthio)-2-ethylbutanoic acid], the IC50 is reported as 70.6 nM.

Same assay, conditions: single determinations of multiple head-to-head tests, Ref cpd 2 vs Cpd 83; read-out: Multiple determination data (IC50)

With `CCC(CC)(Sc1ccnc2ccc(Br)cc12)C(=O)O` [Compound 83, 2-(6-bromoquinolin-4-ylthio)-2-ethylbutanoic acid] the IC50 was 42.5 nM and 117 nM and 89 nM and 93 nM and 56 nM and 58 nM and 38.9 nM.

Same assay, conditions: statement in the text on Table 1

With `CCC(CC)(Sc1ccnc2ccc(Br)cc12)C(=O)O` [Compound 83, 2-(6-bromoquinolin-4-ylthio)-2-ethylbutanoic acid] the “inhibitory effect on uric acid transporter URAT1 (in words)” value was “better inhibitory activity against the uric acid transporter than compound 1”.
